# Measurements: patent publication US10111846B2, “S isomers of alpha-methyl-hydrocinnamic acid for the treatment of blood disorders” (priority 2009, dated 2018)
# Entries after “also recorded” stand apart in the source; their conditions may differ.
# Experiments:
# [1] = test system: erythropoiesis and myelopoiesis; assay: In vitro cell culture testing of stimulation of erythropoiesis and myelopoiesis; format: cell-based; details: for concentration giving stimulation of erythropoiesis and myelopoiesis: cell culture, data not shown
# Text: ST7S is shown to stimulate myelopoiesis and erythropoiesis in animal subjects. […] Thus, the employed concentration of S isomer is about 4-fold lower than that of racemate to achieve similar degrees of erythropoiesis and myelopoiesis.
# [2] = PK profiles after oral and IV administration in baboons; format: in vivo
# Protocol: (§1) FIGS. 8A-8B show […] and oral bioavailability of ST7. […] Target does equivalent to 20 mg/kg in an adult human.
# (§2) Accordingly, ST7 is suitable for once/day dosing.
# bone marrow = assay: Lethally-irradiated murine model, bone marrow histology; format: in vivo, mice; details: LD90 irradiation day 0, daily SC from day 1, day 15
# Protocol: Mice were irradiated at LD90 on day 0, and received daily SC injections of ST7-S or saline (control) starting Day 1. Bone marrow was examined on Day 15.
# (§3) In particular, absolute neutrophil count (ANC) increased after administration of NaST7 (500 mg/kg IP and 300 mg/kg IP) after sub-lethal does of irradiation (e.g., exposure to 6 Gy irradiation on day 0).
# [3] = test system: WBC and neutrophil counts; assay: WBC and absolute neutrophil counts (ANC) in baboons; format: in vivo, baboon
# Protocol: FIG. 12 is a graph showing increase in both white blood cells (WBC) and Absolute neutrophil counts (ANC) after oral administration of 200 mg/kg ST7S on days 0-4 results in a 3-fold stimulation in WBC and neutrophil counts over 6 days.
# In particular, oral administration of ST7 to a baboon results in a 3-fold stimulation of WBC count over 6 days (FIG. 2A).
# [4] = Oral administration to a normal human subject, plasma levels; format: in vivo
# Protocol: as §1, §2
# [5] = test system: human hematopoietic cultures; assay: CFU-GM colony formation in human hematopoietic cultures; format: cell-based
# erythropoiesis [6] = assay: ST7 once daily to mice for 5 days: erythropoiesis (hematocrit, hemoglobin); format: in vivo; details: once daily for 5 days, by day 14
# [7] = test system: Chemotherapy-Induced Neutropenia Murine Model; assay: Chemotherapy (5-FU)-induced neutropenia murine model; format: in vivo, mice
# Protocol: Mice were treated with 5-FU on day 0, then received daily SC injection of saline or ST7 or G-CSF beginning on Day 1 and absolute neutrophil counts (ANC) were assessed on days 0, 9 and 13.
# Additionally, administration of ST7 also enhances Myeloid Recovery in a Chemotherapy-Induced Neutropenia Murine Model. Mice were treated with 5-FU on day 0, then received daily SC injection of saline (control) or ST7 or G-CSF beginning on Day 1 and the absolute neutrophil counts (ANC) were assessed on days 0, 9 and 13.
# erythropoiesis [8] = assay: Oral ST7 in baboon with daily phlebotomy, chronic anemia; format: in vivo; details: oral 50 mg/kg per day, 5 days a week over 3 weeks
# [9] = test system: cultured normal human neutophils; assay: Human neutrophil survival in vitro; format: cell-based; details: 200 μM, 50 μM
# Text: (§4) FIG. 7A is a histogram showing hemokines SCFADs induce anti-apoptotic proteins. FIG. 7B is a western blot of Mcl-1L to Mcl-1S protein expression (with β-actin as a protein loading control).
# Mcl-1L to Mcl-1S = assay: Western blot of Mcl-1L to Mcl-1S protein expression (anti-apoptotic proteins); format: cell-based; details: after exposure
# Text: as §4
# [10] = test system: sub-lethally irradiated mouse model; assay: Sub-lethally irradiated (6 Gy) mouse model, ANC; format: in vivo, mice; set-up: platelet level, level below which decrease was prevented at any timepoint / ANC, level below which decline was prevented at any time: unit not given here
# Protocol: FIG. 9 is a graph of absolute neutrophil count (ANC) response to NaST7 (500 mg/kg IP and 300 mg/kg IP) after sub-lethal does of irradiation where mice were exposed to 6 Gy irradiation on day 0 and daily ST7 (enantiomer) was administered at two doses, beginning day 1.
# as §3
# platelet counts = assay: Platelet counts in nonhuman primates; format: in vivo, baboon; details: IV to 3 baboons on days 1-3 and 7-9
# Protocol: ST7 was administered via IV to baboons on days 1-3 and 7-9. ST7 works as similarly in all three baboons (Baboon numbers: GG24, FM45, FM83).
# Administration of ST7 also increases platelet levels after administration to non-human primates.
# [11] = oral 200 mg/kg on days 0-4, over 6 days
structure (smiles),measurement,setting,value
"CC(Cc1ccccc1)C(=O)[O-].[Na+] (stereo not drawn) [ST7S, S-isomer of alpha-methyl-hydrocinnamic acid]",fold lower concentration of S isomer than racemate for similar degrees of erythropoiesis and myelopoiesis,[1],about 4 fold
same,concentration giving stimulation of erythropoiesis and myelopoiesis,[1],about 50 μM
same,time available after administration,"[2]; about 113 mg/kg administered orally, FIG. 8A",at least 4 hours
same,bone marrow histology,bone marrow,stimulates bone marrow recovery; also recorded: normocellular marrows
same,"neutrophil counts (ANC), short-term administration","[3]; baboons, 100 mg/kg at day 0-2 and day 7-9",increases neutrophil counts
same,"neutrophil counts (ANC), long term","[3]; baboons, 47 days, administered at 1-5 days and 34-38 days",increases neutrophil counts; also recorded: Neutrophil counts increase
same,stimulation in WBC,[3]; [11],3 fold
same,stimulation in neutrophil counts,[3]; [11],3 fold
same,time available after administration,"[4]; about 1.4 g administered orally, FIG. 8B",at least 14 hours
"CC(Cc1ccccc1)C(=O)O (racemic) [ST7, α-methyl-hydrocinnamic acid]",CFU-GM colony formation,[5],increases CFU-GM Colony formation
same,hematocrit,erythropoiesis [6],significant increase in hematocrit
same,concentration giving stimulation of erythropoiesis and myelopoiesis,[1],about 200 μM
same,bioavailability,"[2]; baboon, in vivo, po, non-human primates, 113 mg/kg",> 90%
same,PK profiles oral versus IV,[2]; non-human primates,nearly identical PK profiles
same,recovery of ANC,"[7]; 5-FU day 0, daily SC injection from day 1, day 13",accelerated recovery of ANC by day 13 as efficiently as G-CSF
same,increase in NE (K/μL) as compared to saline control,[7]; day 13,7-10 fold
same,stimulation of WBC count,"[3]; baboon, oral, over 6 days",3 fold
same,absolute increase in hematocrit level,erythropoiesis [8],7 percentage points
same,"increase in hematocrit level, % of baseline",erythropoiesis [8],28%
same,increase in total hemoglobin level,erythropoiesis [8],2.5 g/dL
same,drug levels relative to target dose,"[4]; normal human subject, oral 1 or 1.4 grams",persist above the target dose for several hours
same,apoptosis of neutrophils,[9],suppresses apoptosis
same,ratios of Mcl-1L to Mcl-1S,Mcl-1L to Mcl-1S,shifted towards anti-apoptotic actions
same,"ANC, level below which decline was prevented at any time","[10]; 500 mg/kg IP and 300 mg/kg IP daily from day 1, 6 Gy on day 0",≥ 200
same,"platelet level, level below which decrease was prevented at any timepoint","[10]; 500 mg/kg IP and 300 mg/kg IP daily from day 1, sub-lethal irradiation",≥ 200
same,platelet count,platelet counts,stimulation of platelet count in all animals; also recorded: increased platelet counts
